Test results: patent publication EP3403652A1, “PREVENTION AND TREATMENT OF FIBROBLAST GROWTH FACTOR 23 (FGF23)-ASSOCIATED DISORDERS INCLUDING CHRONIC KIDNEY DISEASE (CKD)” (Veterinärmedizinische Universität Wien, priority 2017, dated 2018)

Experiments:
[1] = system: renal distal tubules; assay: Intracellular Ca2+ imaging by 2-photon microscopy in Fluo-4-loaded live kidney slices ex vivo; format: cell-based, mice; conditions: co-treatment with 200 ng/ml rFGF23, 2 h, iFGFR pan 120 nM
Description: (§1) The preparation of kidney slices for ex vivo experiments was performed as described in Andrukhova O et al. (EMBO J., 2014. 33, 229-246). Longitudinal 200-µm-thick live slices from freshly isolated kidneys of 3-month-old male WT and Klotho/VDR mice were prepared using a Leica VT1000 Vibratome (Leica Microsystems), and were used for ex vivo treatment with various substances as described below.
(§2) Longitudinal 200-µm-thick live slices of freshly isolated kidneys were prepared using a Leica VT1000 Vibratome (Leica Microsystems). For Na^+ imaging, the kidney slices of WT and Klotho/VDR mice were incubated for 60 min at 37°C with 2 µM of the sodium-sensitive dye SBFI (Molecular Probes), diluted in DMSO (Merck Millipore International) and 20% Pluronic (Merck Millipore International). For Ca^2+ imaging, the kidney slices were incubated for 30 min at 37°C with 2 µM of the calcium-sensitive dye Fluo-4 (Molecular Probes), diluted in DMSO and 20% Pluronic. Thereafter, the slices were washed two times for 20 min each in 0.1M PBS, and were subsequently incubated in vitro with vehicle (PBS), rFGF23 R176/179Q [(100 or 200 ng/ml) kindly provided by Amgen Inc., Thousand Oaks, CA, USA], PD173074 (Sigma-Aldrich) (10 nM for inhibiting FGFR1 and 25 nM for inhibiting FGFR1 and 3), pan FGFR inhibitor [(120 nM) FIIN1 hydrochloride, Tocris Bioscience, Bristol, UK)], WNK signalling inhibitor Closantel (30 ng/mL, generous gift of Dario R. Alessi) alone or combined at 37°C, 5% CO2 / 95% air humidified atmosphere for 2 h. […] For visualization of intracellular Na^+ and Ca^2+ content, SBFI or Fluo-4 were excited by a Ti:sapphire laser (Chameleon, Coherent Inc.) at 820 nm. Images (512 × 512 pixels) were acquired every 30 sec at a depth of 60 - 80 µm. Fluorescence images were analyzed using Image J software. The whole epithelial layer of the distal tubules was selected by manually drawing the region of interest (ROI) to quantify intracellular Na^+ and Ca^2+ levels. Fluorescence intensity was quantified in 4-9 ROIs per image, and the ratio between the fluorescence intensity and the ROI area was calculated for each tubule. This ratio was used for all subsequent calculations.
(§3) To gain more insight into the functional role of the rFGF23-induced increase in distal renal tubular ion channel expression and the FGF receptors involved, we performed intracellular Ca^2+ and Na^+ imaging by 2-photon microscopy in Fluo-4- or SFBI-loaded and subsequently rFGF23-treated (100 or 200 ng/ml for 2 h), 200-µm-thick renal slices prepared from WT and Klotho/VDR mice.
(§4) In this example it was assessed whether the Klotho-independent FGF23 signalling pathway is mediated through FGFR3 and/or 4, given that FGFR2 expression was low in distal renal tubules (Figure 12A). To dissect between the latter receptors, Klotho/VDR kidney slices were treated with rFGF23 alone or in combination with an FGFR1/FGFR3 inhibitor and the WNK signalling inhibitor closantel.

[2] = system: renal distal tubules; assay: Intracellular Na+ imaging by 2-photon microscopy in SBFI-loaded live kidney slices ex vivo; format: cell-based, mice; conditions: for rFGF23-induced increase in intracellular Na^+ fluorescence (distal tubular Na^+ uptake): co-treatment with 200 ng/ml rFGF23, 2 h, iFGFR pan 120 nM; for decrease of SFBI fluorescence intensity in distal tubules: rFGF23-treated WT kidney slices, CTZ 10 µM
Description: as §1, §2, §3, §4

[3] = system: OSR1; conditions: dose-dependent manner; literature (Yamada et al. 2016); cited from earlier work
[4] = biological target: SPAK (Homo sapiens, UniProt Q9UEW8); conditions: dose-dependent manner; literature (Yamada et al. 2016; Mori et al. 2013); cited from earlier work
[5] = system: 5/6 Nx C57BL/6 mice; assay: 5/6 nephrectomy with angiotensin II infusion via osmotic mini-pumps; format: in vivo; conditions: AngII- vs. vehicle-treated 5/6-Nx mice, 4 and 8 weeks postsurgery
Description: The 5/6 nephrectomy (5/6 Nx) was performed in two stages (Leelahavanichkul A et al., Kidney Int. 78, 2010. 1136-1153) under isoflurane anesthesia (Fig. 1A). Pain was managed by s.c. injections of buprenorphine, metamizol and meloxicam. Additionally, the animals were treated for 3 days postsurgery with the analgesic piritramid via the drinking water, starting 6 h postsurgery. At the first stage (wk -1), the left kidney was decapsulated to avoid ureter and adrenal damage, and the upper and lower poles were partially resected via a left flank incision. Bleeding was controlled by microfibrillar collagen hemostasis (Avitene, Davol, Cranston, RI). The upper and lower poles were weighed. One week later, the entire right kidney was removed via a right flank incision and weighed. Animals with insufficient kidney resection as determined by a ratio of < 0.55 for the removed left kidney weight to the removed right kidney weight were euthanized. In the Sham surgery control mice, a left flank incision was performed at step 1, both poles of kidney were identified, then the flank incision was closed; a subsequent right flank incision was performed at step 2; the right renal artery was identified, then the flank incision was closed. After each flank incision, muscles and skin were repositioned and sewed. Mortality was tracked throughout the study. Necropsy was not performed on animals that died early.
Angiotensin II (Ang II) 0.75 µg/kg/min (Sigma) in physiological saline or vehicle was infused by subcutaneous osmotic mini-pumps (Alzet model 1004, Cupertino, CA) (Leelahavanichkul A et al., Kidney Int. 78, 2010. 1136-1153). The osmotic minipumps were inserted subcutaneously at the back under isoflurane anesthesia at 5 days after right NX or Sham surgery (Fig. 1A).
In order to test susceptibility of C57BL/6 mice to 5/6 nephrectomy (5/6-Nx)- and angiotensin II (AngII) infusion-induced CKD, 5/6-Nx was performed and osmotic minipumps continuously releasing vehicle or AngII were thereafter implanted into male wild-type (WT) C57Bl/6 mice, which were then monitored over 8 weeks after 5/6-Nx. All mice were maintained on rescue diet.

[6] = biological target: WNK-SPAK binding (Homo sapiens, UniProt Q9UEW8); conditions: literature (Mori et al. 2013); cited from earlier work
[7] = biological target: T1, TRPV6 (Homo sapiens, UniProt Q9H1D0); conditions: 1 µM; literature (Nilius et al. 2001); cited from earlier work
T1 sequence (Q9H1D0 1-765): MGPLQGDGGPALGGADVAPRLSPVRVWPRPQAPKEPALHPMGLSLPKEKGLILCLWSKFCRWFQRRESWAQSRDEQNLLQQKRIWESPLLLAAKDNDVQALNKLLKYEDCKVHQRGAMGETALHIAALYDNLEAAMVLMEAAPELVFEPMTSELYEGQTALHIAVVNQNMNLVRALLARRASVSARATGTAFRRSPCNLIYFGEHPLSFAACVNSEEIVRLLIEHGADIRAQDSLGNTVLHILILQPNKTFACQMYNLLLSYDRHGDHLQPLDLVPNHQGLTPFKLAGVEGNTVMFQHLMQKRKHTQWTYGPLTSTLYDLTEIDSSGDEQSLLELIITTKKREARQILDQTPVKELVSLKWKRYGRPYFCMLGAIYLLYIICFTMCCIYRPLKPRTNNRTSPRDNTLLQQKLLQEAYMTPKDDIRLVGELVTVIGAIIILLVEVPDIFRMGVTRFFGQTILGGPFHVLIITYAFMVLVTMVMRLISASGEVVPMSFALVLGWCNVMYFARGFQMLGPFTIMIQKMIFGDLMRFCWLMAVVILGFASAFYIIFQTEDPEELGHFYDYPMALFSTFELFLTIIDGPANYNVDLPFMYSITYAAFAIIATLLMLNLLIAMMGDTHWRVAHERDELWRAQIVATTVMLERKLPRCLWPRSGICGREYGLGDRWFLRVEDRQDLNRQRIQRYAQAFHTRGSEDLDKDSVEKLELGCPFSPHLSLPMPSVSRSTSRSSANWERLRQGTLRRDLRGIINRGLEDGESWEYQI

[8] = biological target: TRPV5 (Homo sapiens, UniProt Q9NQA5); conditions: 1 µM; literature (Nilius et al. 2001); cited from earlier work
[9] = Klotho/VDR kidney slices, ruthenium red 10 µM, closantel 30 ng/mL, PD173074 10 nM (iFGFR1) or 25 nM (FGFR1/3)
[10] = WT kidney slices, ruthenium red 1 µM, iFGFR1 PD173074 10 nM
[11] = Klotho/VDR kidney slices, closantel 30 ng/mL, BF 15 µM, PD173074 10 nM (iFGFR1) or 25 nM (FGFR1/3)
[12] = WT kidney slices, iFGFR1 PD173074 10 nM

Chain of TRPV5 (Q9NQA5 whole entry, species assumed): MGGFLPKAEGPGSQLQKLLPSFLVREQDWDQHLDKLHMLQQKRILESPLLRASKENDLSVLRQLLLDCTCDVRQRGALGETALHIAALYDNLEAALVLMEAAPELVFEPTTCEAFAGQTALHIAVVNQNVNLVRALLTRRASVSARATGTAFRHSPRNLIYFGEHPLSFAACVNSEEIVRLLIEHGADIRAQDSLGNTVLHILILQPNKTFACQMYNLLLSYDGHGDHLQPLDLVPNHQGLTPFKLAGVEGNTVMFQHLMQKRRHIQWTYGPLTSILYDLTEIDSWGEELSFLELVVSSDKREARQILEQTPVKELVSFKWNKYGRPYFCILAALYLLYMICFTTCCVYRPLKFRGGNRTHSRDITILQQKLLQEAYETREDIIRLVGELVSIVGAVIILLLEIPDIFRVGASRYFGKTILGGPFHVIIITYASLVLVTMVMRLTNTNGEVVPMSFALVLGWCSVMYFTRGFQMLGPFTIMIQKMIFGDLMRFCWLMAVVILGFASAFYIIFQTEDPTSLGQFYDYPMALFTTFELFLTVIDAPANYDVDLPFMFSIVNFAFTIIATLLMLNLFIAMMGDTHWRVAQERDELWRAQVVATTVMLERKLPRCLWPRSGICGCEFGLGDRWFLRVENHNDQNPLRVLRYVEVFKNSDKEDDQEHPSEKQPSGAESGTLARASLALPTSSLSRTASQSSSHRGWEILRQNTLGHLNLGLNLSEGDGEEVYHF

Compound: CCN(CC)CCCCNc1ncc2cc(-c3cc(OC)cc(OC)c3)c(NC(=O)NC(C)(C)C)nc2n1 [iFGFR1, PD173074]
- rFGF23-induced increase in intracellular Ca^2+ fluorescence (distal tubular Ca^2+ uptake) [1, 9]: no effect
- rFGF23-induced increase in intracellular Ca^2+ fluorescence (distal tubular Ca^2+ uptake) ([1]; Klotho/VDR kidney slices, ruthenium red 10 µM, closantel 30 ng/mL, PD173074 10 nM (iFGFR1) or 25 nM (FGFR1/3), listed as FGFR1/3 inhibitor): partially blocked
- rFGF23-induced increase in intracellular Ca^2+ fluorescence (distal tubular Ca^2+ uptake) [1, 10]: largely blocked
- rFGF23-induced increase in intracellular Na^+ fluorescence (distal tubular Na^+ uptake) [2, 11]: no effect
- rFGF23-induced increase in intracellular Na^+ fluorescence (distal tubular Na^+ uptake) ([2]; Klotho/VDR kidney slices, closantel 30 ng/mL, BF 15 µM, PD173074 10 nM (iFGFR1) or 25 nM (FGFR1/3), listed as FGFR1/3 inhibitor): completely blocked
- rFGF23-induced increase in intracellular Na^+ fluorescence (distal tubular Na^+ uptake) [2, 12]: largely blocked

Compound: CC(C)(C)NC(=O)c1cncn1C1CCN(c2ccc(-c3nnc(C(F)(F)F)o3)cn2)CC1 [WNK463, N-tert-butyl-3-[1-[5-[5-(trifluoromethyl)-1,3,4-oxadiazol-2-yl]pyridin-2-yl]piperidin-4-yl]imidazole-4-carboxamide]
- OSR1 phosphorylation [3]: decreases
- SPAK phosphorylation [4]: decreases

Compound: CCCCNc1cc(C(=O)O)cc(S(N)(=O)=O)c1Oc1ccccc1 [BF, bumetanide]
- rFGF23-induced increase in intracellular Na^+ fluorescence (distal tubular Na^+ uptake) [2, 11]: inhibited
- decrease of SFBI fluorescence intensity in distal tubules ([2]; BF 15 µM): approximately 50%

Compound: Angiotensin II (DRVYIHPF; Angiotensin-2; UniProt P01019 25-32, looked up) [AngII, Angiotensin II (Sigma) infused by subcutaneous osmotic mini-pumps]
- GFR ([5]; 0.75 µg/kg/min s.c. infusion): no significant differences
- azotemia [5]: no significant differences
- mean arterial pressure measured by arterial catheterization [5]: no significant differences
- proteinuria [5]: no significant differences

Compound: CCOc1ccc2nc3cc(NCc4ccco4)ccc3c(N)c2c1 [STOCK2S-26016, 7-Ethoxy-N3-(2-furanylmethyl)-3,9-acridinediamine]
- WNK-SPAK binding [6]: preventing
- SPAK phosphorylation [4]: preventing

Compound: C=CC(=O)Nc1cccc(CN2C(=O)N(c3c(Cl)c(OC)cc(OC)c3Cl)Cc3cnc(NCCCCN(CC)CC)nc32)c1.Cl [iFGFR pan, FIIN1 hydrochloride]
- rFGF23-induced increase in intracellular Ca^2+ fluorescence (distal tubular Ca^2+ uptake) [1, 9]: completely blocked
- rFGF23-induced increase in intracellular Ca^2+ fluorescence (distal tubular Ca^2+ uptake) [1, 10]: completely blocked
- rFGF23-induced increase in intracellular Na^+ fluorescence (distal tubular Na^+ uptake) [2, 11]: completely blocked
- rFGF23-induced increase in intracellular Na^+ fluorescence (distal tubular Na^+ uptake) [2, 12]: completely blocked

Compound: NS(=O)(=O)c1cc2c(cc1Cl)N=CNS2(=O)=O [CTZ, chlorothiazide]
- decrease of SFBI fluorescence intensity in distal tubules ([2]; BF 15 µM): approximately 50%

Compound: N.N.N.N.N.N.N.N.N.N.N.N.N.N.[Cl-].[Cl-].[Cl-].[Cl-].[Cl-].[Cl-].[O-2].[O-2].[Ru+3].[Ru+3].[Ru+4] [ruthenium red]
- TRPV6 channel function [7]: not
- rFGF23-induced increase in intracellular Ca^2+ fluorescence (distal tubular Ca^2+ uptake) [1, 9]: antagonize
- rFGF23-induced increase in intracellular Ca^2+ fluorescence (distal tubular Ca^2+ uptake) [1, 10]: reversed
- TRPV5 channel function [8]: block
